Measurements reported in publication PMC9600394, “Efficient Synthesis with Green Chemistry Approach of Novel Pharmacophores of Imidazole-Based Hybrids for Tumor Treatment: Mechanistic Insights from In Situ to In Silico” (Cancers, 2022).
Read-outs that look alike come from different tables or passages of the source.

Experiments:
hCA-II [1] = molecular target: T1, hCA-II (Homo sapiens, UniProt P00918); test: In vitro inhibition of human CA-II (p-nitrophenyl acetate, 96-well plate); format: biochemical; settings: for Inhibitory activity for hCA-II in words: compared to acetazolamide; for hCA-II IC50 ± SEM: unit not given
hCA-II [2] = molecular target: T1, hCA-II; test: Enzyme kinetic (mechanistic) studies on hCA-II; settings: for Type of Inhibition (hCA-II): Lineweaver–Burk / Dixon plots; for Vmaxapp (hCA-II): maximum velocity of the enzyme in the presence of inhibitors
Method: In vitro inhibition of human CA (CA-II, and CA-IX) was performed in 96-well plate. Each well of the 96-well plate comprised 20 µL of the test compound (0.5 mM), 20 µL of the purified enzyme (0.1 mg/mL), 140 µL of the assay buffer (HEPES–tris, 20 mM), and 20 µL of the substrate (p-Nitrophenyl acetate; prepared in methanol), making a final volume of 200 µL. The assay procedure started with the incubation of the test compound, desired enzyme, and 140 µL of buffer for 15 min. […] All the in vitro testing results, e.g., percent inhibition, and the IC50 values were analyzed by EZ-Fit, which is a curve-fitting enzyme kinetics program (Perrella Scientific Inc., Amherst, MA, USA). All kinetic graphs were plotted by GraFit program (Horley, UK). Different parameters and their values, such as the values of intercepts, slopes, correlation coefficients, and their standard error means (SEMs), were calculated by the nonlinear regression analysis using the same program (GraFit program).
Certain parameters of the assay were changed in order to determine the mode of inhibition of compounds against specific enzymes.

hCA-IX [3] = molecular target: T2, hCA-IX (Homo sapiens, UniProt Q16790); test: In vitro inhibition of human CA-IX (p-nitrophenyl acetate, 96-well plate); format: biochemical; settings: for IC50 / hCA-IX IC50 ± SEM: purified enzyme, substrate p-nitrophenyl acetate, 25 °C, µM from b1; for IC50: unit inferred, read-out: hCA-IX IC50 ± SEM; for Selectivity / specificity for hCA-IX (in words): hCA-IX versus hCA-II; for hCA-IX IC50 ± SEM: unit not given
MDA-MB-231 = test: MTT assay in breast cancer cell line MDA-MB-231; settings: for inhibition at 100 µM: read-out: MDA-MB-231 %Inhibition; for viability at 100 µM: read-out: MDA-MB-231 %Viability
Method: (§1) This cell line is ER, PR, and E-cadherin negative, and it lacks the growth factor receptor HER2. […] The normal human breast cell line (MCF-10A) was used as a control in the study. Cells were cultured in DMEM supplemented with 10% FBS and 1% antibiotics (100 U/mL penicillin). […] After 48 h of incubation, 20 μL of MTT solution (5 mg/mL) was pipetted into each well and incubated for another 4 h. The medium was later discarded, and the formazan precipitate was dissolved in DMSO. The absorbance of the mixtures was determined by a microplate reader at 570 nm. All the experiments were performed in triplicate, and the cytotoxicity was expressed as a percentage of cell viability and compared with untreated control cells [33]. % Viability=Absorbance of sample/Absorbance of control×100
(§2) The dose–response and IC50 values were calculated by IBM SPSS Statistics 26 software.
(§3) Simultaneously, the normal human breast epithelial cell line (MCF-10A) was used as a positive control. The MTT [3-(4,5-dimethylthiazol-2-yl)-2,5-diphenyltetrazolium bromide] assay was used to determine the decrease in cancer cell viability induced by the synthesized hybrids.

[4] = MTT assay in normal breast cell line MCF-10A; settings: human
Method: as §1, §2, §3

MCF-10A = test: MTT assay in normal breast cell line MCF-10A; settings: for inhibition at 100 µM / IC50: Homo sapiens, MCF-10A, 48 h; for inhibition at 100 µM: read-out: MCF-10A %Inhibition; for IC50: read-out: MCF-10A IC50
Method: as §1, §2, §3

hCA-IX [5] = molecular target: T2, hCA-IX; test: Enzyme kinetic (mechanistic) studies on hCA-IX; format: biochemical; settings: for Type of Inhibition (hCA-IX): Lineweaver–Burk / Dixon plots; for Kmapp (hCA-IX): Michaelis–Menten constant in the presence of inhibitors; for Vmaxapp (hCA-IX): maximum velocity of the enzyme in the presence of inhibitors
[6] = Homo sapiens, MDA-MB-231, 48 h, read-out: MDA-MB-231 IC50, 48 h, MTT
[7] = purified enzyme, substrate p-nitrophenyl acetate, 25 °C, µM from b1
[8] = read-out: MDA-MB-231 IC50, 48 h, MTT

Cc1ncc(C2=C(O)CCCC2=O)n1CCO [Compound 1, 3-hydroxy-2-(1-(2-hydroxyethyl)-2-methyl-1H-imidazol-5-yl) cyclohex-2-en-1-one]
Inhibitory activity for hCA-II in words (hCA-II [1]): potent inhibitory activity | IC50 (hCA-II [1]; purified enzyme, substrate p-nitrophenyl acetate, 25 °C, unit inferred, µM from b1, read-out: hCA-II IC50 ± SEM): 11.6 ± 0.2 µM | Ki (hCA-II [2]): 9.14 ± 0.08 µM | Type of Inhibition (hCA-II) (hCA-II [2]): competitive inhibition | Vmaxapp (hCA-II) (hCA-II [2]): 19.32 | Inhibitory activity for hCA-IX in words (hCA-IX [3]; compared to the standard acetazolamide): comparatively weak activity | IC50 (hCA-IX [3]): 23 ± 0.5 µM | inhibition at 100 µM (MDA-MB-231; Homo sapiens, MDA-MB-231, 48 h): 51.4% | viability at 100 µM (MDA-MB-231; Homo sapiens, MDA-MB-231, 48 h): 48.6% | IC50 (MDA-MB-231; [6]): 96 µM | melting point: 186 to 190 °C | viability at 48 h, 100 µM ([4]; MCF-10A normal breast epithelial cells): 86.8% | inhibition at 100 µM (MCF-10A): 13.2% | IC50 (MCF-10A): > 100 µM

Cc1ncc(-c2c(O)[nH]c(=O)[nH]c2=O)n1CCO [Compound 8, 6-hydroxy-5-(1-(2-hydroxyethyl)-2-methyl-1H-imidazol-5-yl) pyrimidine-2,4 (1H, 3H)-dione]
hCA-II IC50 ± SEM (hCA-II [1]; [7]): Inactive | Inhibitory activity for hCA-IX in words (hCA-IX [3]): comparatively weak activity | Selectivity / specificity for hCA-IX (in words) (hCA-IX [3]): selective inhibitors of hCA-IX | IC50 (hCA-IX [3]): 32.2 ± 1 µM | inhibition at 100 µM (MDA-MB-231; Homo sapiens, MDA-MB-231, 48 h): 77.8% | viability at 100 µM (MDA-MB-231; Homo sapiens, MDA-MB-231, 48 h): 22.2% | IC50 (MDA-MB-231; [6]): 55.6 µM | viability at 48 h, 100 µM [4]: 84.5% | inhibition at 100 µM (MCF-10A): 15.5% | IC50 (MCF-10A): > 100 µM

Cc1ncc(-c2c(O)n(C)c(=O)n(C)c2=O)n1CCO [Compound 10, 6-hydroxy-5-(1-(2-hydroxyethyl)-2-methyl-1H-imidazol-5-yl)-1,3-dimethylpyrimidine-2,4(1H,3H)-dione]
Ki (hCA-IX [5]): 13.24 ± 0.03 µM | Type of Inhibition (hCA-IX) (hCA-IX [5]): competitive inhibition | Kmapp (hCA-IX) (hCA-IX [5]): 0.40 | Vmaxapp (hCA-IX) (hCA-IX [5]): 23.01 | hCA-II IC50 ± SEM (hCA-II [1]; [7]): Inactive | Selectivity / specificity for hCA-IX (in words) (hCA-IX [3]): selective inhibitors of hCA-IX | IC50 (hCA-IX [3]): 14.8 ± 0.1 µM | inhibition at 100 µM (MDA-MB-231; Homo sapiens, MDA-MB-231, 48 h): 75.5% | viability at 100 µM (MDA-MB-231; Homo sapiens, MDA-MB-231, 48 h): 24.5% | IC50 (MDA-MB-231; [6]): 60.9 µM | melting point: 163 to 165 °C | viability at 48 h, 100 µM [4]: 84.9% | inhibition at 100 µM (MCF-10A): 15.1% | IC50 (MCF-10A): > 100 µM

Cc1ncc(-c2c(O)[nH]c(=S)[nH]c2=O)n1CCOC(=O)c1ccccc1 [Compound 7, 2-(5-(6-hydroxy-4-oxo-2-thioxo-1,2,3,4-tetrahydropyrimidin-5-yl)-2-methyl-1H-imidazol-1-yl) ethyl benzoate]
Ki (hCA-IX [5]): 7.32 ± 0.02 µM | Type of Inhibition (hCA-IX) (hCA-IX [5]): competitive inhibition | Vmaxapp (hCA-IX) (hCA-IX [5]): 23.01 | hCA-II IC50 ± SEM (hCA-II [1]; [7]): Inactive | Inhibitory activity for hCA-IX in words (hCA-IX [3]): strong inhibitory activity | Selectivity / specificity for hCA-IX (in words) (hCA-IX [3]): selective inhibitors of hCA-IX | IC50 (hCA-IX [3]): 9.6 ± 0.2 µM | inhibition at 100 µM (MDA-MB-231; Homo sapiens, MDA-MB-231, 48 h): 69.2% | viability at 100 µM (MDA-MB-231; Homo sapiens, MDA-MB-231, 48 h): 30.8% | IC50 (MDA-MB-231; [6]): 64 µM | IC50 (MDA-MB-231; [8]): 64 µM | melting point: 225 to 230 °C | viability at 48 h, 100 µM [4]: 86.8% | inhibition at 100 µM (MCF-10A): 13.2% | IC50 (MCF-10A): > 100 µM

Cc1ncc(-c2c(O)[nH]c(=O)[nH]c2=O)[nH]1 [Compound 3, 6-hydroxy-5-(2-methyl-1H-imidazol-5-yl) pyrimidine-2,4(1H,3H)-dione]
Ki (hCA-IX [5]): 8.01 ± 0.01 µM | Type of Inhibition (hCA-IX) (hCA-IX [5]): competitive inhibition | Kmapp (hCA-IX) (hCA-IX [5]): 0.38 | Vmaxapp (hCA-IX) (hCA-IX [5]): 23.01 | IC50 (hCA-II [1]): 30.7 ± 3.4 µM | Inhibitory activity for hCA-II in words (hCA-II [1]): weak activity | IC50 (hCA-IX [3]): 10.9 ± 0.8 µM | inhibition at 100 µM (MDA-MB-231; Homo sapiens, MDA-MB-231, 48 h): 61.2% | viability at 100 µM (MDA-MB-231; Homo sapiens, MDA-MB-231, 48 h): 38.8% | IC50 (MDA-MB-231; [6]): 76.1 µM | melting point: 215 °C (dec.) | viability at 48 h, 100 µM [4]: 85.7% | inhibition at 100 µM (MCF-10A): 14.3% | IC50 (MCF-10A): > 100 µM

Cc1ncc(-c2c(O)[nH]c(=S)[nH]c2=O)[nH]1 [Compound 4, 6-hydroxy-5-(2-methyl-1H-imidazol-5-yl)-2-thioxo-2,3-dihydropyrimidin-4(1H)-one]
Ki (hCA-IX [5]): 15.02 ± 0.04 µM | Type of Inhibition (hCA-IX) (hCA-IX [5]): competitive inhibition | Kmapp (hCA-IX) (hCA-IX [5]): 0.43 | Vmaxapp (hCA-IX) (hCA-IX [5]): 23.01 | IC50 (hCA-II [1]): 31.1 ± 1.3 µM | Inhibitory activity for hCA-II in words (hCA-II [1]): weak activity | IC50 (hCA-IX [3]): 17.1 ± 0.6 µM | inhibition at 100 µM (MDA-MB-231; Homo sapiens, MDA-MB-231, 48 h): 60.5% | viability at 100 µM (MDA-MB-231; Homo sapiens, MDA-MB-231, 48 h): 39.5% | IC50 (MDA-MB-231; [6]): 75.7 µM | viability at 48 h, 100 µM [4]: 82.1% | inhibition at 100 µM (MCF-10A): 17.9% | IC50 (MCF-10A): > 100 µM

Cc1ncc(-c2c(O)[nH]c(=O)[nH]c2=O)n1CCOC(=O)c1ccccc1 [Compound 5, 2-(5-(6-hydroxy-2,4-dioxo-1,2,3,4-tetrahydropyrimidin-5-yl)-2-methyl-1H-imidazol-1-yl) ethyl benzoate]
hCA-II IC50 ± SEM (hCA-II [1]; [7]): Inactive | hCA-IX IC50 ± SEM (hCA-IX [3]): Inactive | inhibition at 100 µM (MDA-MB-231; Homo sapiens, MDA-MB-231, 48 h): 82.1% | viability at 100 µM (MDA-MB-231; Homo sapiens, MDA-MB-231, 48 h): 17.9% | IC50 (MDA-MB-231; [6]): 53.6 µM | Anticancer/cytotoxic activity in MDA-MB-231 in words (MDA-MB-231; MTT): excellent anticancer/cytotoxic activity | viability at 48 h, 100 µM [4]: 79.5% | inhibition at 100 µM (MCF-10A): 20.5% | IC50 (MCF-10A): > 100 µM | Toxicity to normal breast cells (MCF-10A) in words (MCF-10A; MTT): no toxicity

Cc1ncc(-c2c(O)n(C)c(=O)n(C)c2=O)n1CCOC(=O)c1ccccc1 [Compound 11, 2-(5-(6-hydroxy-1,3-dimethyl-2,4-dioxo-1,2,3,4-tetrahydropyrimidin-5-yl)-2-methyl-1H-imidazol-1-yl) ethyl benzoate]
Ki (hCA-IX [5]): 8.32 ± 0.05 µM | Type of Inhibition (hCA-IX) (hCA-IX [5]): competitive inhibition | Kmapp (hCA-IX) (hCA-IX [5]): 0.42 | Vmaxapp (hCA-IX) (hCA-IX [5]): 23.01 | IC50 (hCA-II [1]): 15.3 ± 0.3 µM | Inhibitory activity for hCA-II in words (hCA-II [1]): potent inhibitory activity | Ki (hCA-II [2]): 12.58 ± 0.04 µM | Type of Inhibition (hCA-II) (hCA-II [2]): competitive inhibition | Kmapp (hCA-II) (hCA-II [2]; Michaelis–Menten constant in the presence of inhibitors): 0.14 | Vmaxapp (hCA-II) (hCA-II [2]): 19.32 | Selectivity / specificity for hCA-IX (in words) (hCA-IX [3]): selective inhibitors of hCA-IX | IC50 (hCA-IX [3]): 11.9 ± 0.3 µM | inhibition at 100 µM (MDA-MB-231; Homo sapiens, MDA-MB-231, 48 h): 68.2% | viability at 100 µM (MDA-MB-231; Homo sapiens, MDA-MB-231, 48 h): 31.8% | IC50 (MDA-MB-231; [6]): 63.1 µM | IC50 (MDA-MB-231; [8]): 63.1 µM | melting point: 180 to 185 °C | viability at 48 h, 100 µM [4]: 87.9% | inhibition at 100 µM (MCF-10A): 12.1% | IC50 (MCF-10A): > 100 µM

Cc1ncc(-c2c(O)n(C)c(=O)n(C)c2=O)[nH]1 [Compound 6, 6-hydroxy-1,3-dimethyl-5-(2-methyl-1H-imidazol-5-yl) pyrimidine-2,4(1H,3H)-dione]
hCA-II IC50 ± SEM (hCA-II [1]; [7]): Inactive | hCA-IX IC50 ± SEM (hCA-IX [3]): Inactive | inhibition at 100 µM (MDA-MB-231; Homo sapiens, MDA-MB-231, 48 h): 58.4% | viability at 100 µM (MDA-MB-231; Homo sapiens, MDA-MB-231, 48 h): 41.6% | IC50 (MDA-MB-231; [6]): 79.4 µM | viability at 48 h, 100 µM [4]: 86.8% | inhibition at 100 µM (MCF-10A): 13.2% | IC50 (MCF-10A): > 100 µM

Cc1ncc(-c2c(O)[nH]c(=S)[nH]c2=O)n1CCO [Compound 9, 6-hydroxy-5-(1-(2-hydroxyethyl)-2-methyl-1H-imidazol-5-yl)-2-thioxo-2,3-dihydropyrimidin-4(1H)-one]
Ki (hCA-IX [5]): 17.02 ± 0.02 µM | Type of Inhibition (hCA-IX) (hCA-IX [5]): competitive inhibition | Kmapp (hCA-IX) (hCA-IX [5]): 0.47 | Vmaxapp (hCA-IX) (hCA-IX [5]): 23.01 | IC50 (hCA-II [1]): 27.5 ± 1.3 µM | Inhibitory activity for hCA-II in words (hCA-II [1]): weak activity | IC50 (hCA-IX [3]): 19.9 ± 0.8 µM | inhibition at 100 µM (MDA-MB-231; Homo sapiens, MDA-MB-231, 48 h): 73.5% | viability at 100 µM (MDA-MB-231; Homo sapiens, MDA-MB-231, 48 h): 26.5% | IC50 (MDA-MB-231; [6]): 58.6 µM | IC50 (MDA-MB-231; [8]): 58.6 µM | viability at 48 h, 100 µM [4]: 84.5% | inhibition at 100 µM (MCF-10A): 13.2% | IC50 (MCF-10A): > 100 µM
